How the values were obtained:
Assay in all cases: relative viability (nuclei count vs DMSO), 5 days (fraction); higher = more cells survive
Salubrinal + Trametinib = compound: O=C(/C=C/c1ccccc1)NC(NC(=S)Nc1cccc2cccnc12)C(Cl)(Cl)Cl [Salubrinal] + CC(=O)Nc1cccc(-n2c(=O)n(C3CC3)c(=O)c3c(Nc4ccc(I)cc4F)n(C)c(=O)c(C)c32)c1 [Trametinib] (partner 0.02 µM)
Summary of the method: (§1)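 Five library-drug doses in √10 steps were combined with a fixed anchor-drug dose, or a single drug was given alone, by pin tool to lung cancer cell lines in 1536-well plates the day after seeding. Nuclei were stained and counted after 5 days. Relative viability is the nuclei count in treated wells over that in vehicle wells, taken as the median of duplicate plates.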

[1] = compound: Cc1ccc2nc(NCCN)c3ncc(C)n3c2c1 + Nc1nc2[nH]cc(CCc3ccc(C(=O)N[C@@H](CCC(=O)O)C(=O)O)cc3)c2c(=O)[nH]1 [Pemetrexed] (partner 0.2 µM)
Summary of the method: as §1

Salubrinal + Pemetrexed = compound: O=C(/C=C/c1ccccc1)NC(NC(=S)Nc1cccc2cccnc12)C(Cl)(Cl)Cl [Salubrinal] + Nc1nc2[nH]cc(CCc3ccc(C(=O)N[C@@H](CCC(=O)O)C(=O)O)cc3)c2c(=O)[nH]1 [Pemetrexed] (partner 0.2 µM)
Summary of the method: as §1

Salubrinal + Foretinib = compound: O=C(/C=C/c1ccccc1)NC(NC(=S)Nc1cccc2cccnc12)C(Cl)(Cl)Cl [Salubrinal] + COc1cc2c(Oc3ccc(NC(=O)C4(C(=O)Nc5ccc(F)cc5)CC4)cc3F)ccnc2cc1OCCCN1CCOCC1 [Foretinib] (partner 0.25 µM)
Summary of the method: as §1

Row | Cell Line | relative viability (Salubrinal + Trametinib; first compound 0.08 µM) | relative viability (Salubrinal + Trametinib; first compound 0.253 µM) | relative viability (Salubrinal + Trametinib; first compound 0.8 µM) | relative viability (Salubrinal + Trametinib; first compound 2.53 µM) | relative viability (Salubrinal + Trametinib; first compound 8 µM) | relative viability ([1]; first compound 0.04 µM) | relative viability ([1]; first compound 0.1265 µM) | relative viability ([1]; first compound 0.4 µM) | relative viability ([1]; first compound 1.265 µM) | relative viability ([1]; first compound 4 µM) | relative viability (Salubrinal + Pemetrexed; first compound 0.08 µM) | relative viability (Salubrinal + Pemetrexed; first compound 0.253 µM) | relative viability (Salubrinal + Pemetrexed; first compound 0.8 µM) | relative viability (Salubrinal + Pemetrexed; first compound 2.53 µM) | relative viability (Salubrinal + Pemetrexed; first compound 8 µM) | relative viability (Salubrinal + Foretinib; first compound 0.08 µM) | relative viability (Salubrinal + Foretinib; first compound 0.253 µM) | relative viability (Salubrinal + Foretinib; first compound 0.8 µM) | relative viability (Salubrinal + Foretinib; first compound 2.53 µM) | relative viability (Salubrinal + Foretinib; first compound 8 µM)
1 | NCI-H2087 | 0.201 | 0.191 | 0.181 | 0.186 | 0.207 | 0.725 | 0.637 | 0.599 | 0.711 | 0.575 | 0.649 | 0.532 | 0.699 | 0.644 | 0.63 | 1.12 | 0.881 | 1.13 | 1.36 | 1.02
2 | NCI-H1437 | 0.563 | 0.601 | 0.52 | 0.545 | 0.494 | 0.304 | 0.312 | 0.332 | 0.296 | 0.35 | 0.413 | 0.273 | 0.292 | 0.322 | 0.297 | 1.3 | 1.23 | 1.3 | 1.25 | 1.29
3 | NCI-H358 | 0.145 | 0.139 | 0.135 | 0.143 | 0.136 | 0.185 | 0.165 | 0.166 | 0.178 | 0.192 | 0.181 | 0.176 | 0.157 | 0.153 | 0.168 | 0.783 | 0.597 | 0.718 | 0.71 | 0.606
4 | ChaGo-K-1 | 0.968 | 0.858 | 0.882 | 0.905 | 0.802 | 0.248 | 0.267 | 0.256 | 0.252 | 0.253 | 0.266 | 0.274 | 0.241 | 0.253 | 0.375 | 0.989 | 0.956 | 0.892 | 0.869 | 0.802
5 | NCI-H650 | 1.1 | 0.94 | 1.08 | 1 | 0.976 | 0.999 | 0.976 | 0.827 | 1.01 | 0.851 | 1.03 | 1.14 | 1.05 | 1.05 | 0.895 | 1.06 | 1.19 | 1.02 | 1.1 | 1.05
6 | COR-L23 | 0.7 | 0.734 | 0.736 | 0.581 | 0.518 | 0.191 | 0.191 | 0.204 | 0.218 | 0.208 | 0.203 | 0.205 | 0.194 | 0.206 | 0.196 | 1.1 | 0.932 | 1.13 | 1.01 | 0.889
7 | COR-L 105 | 0.466 | 0.559 | 0.407 | 0.477 | 0.449 | 1.19 | 1.21 | 0.996 | 1.23 | 1.11 | 1.25 | 0.831 | 1.24 | 1.04 | 1.09 | 0.981 | 1.14 | 1.22 | 0.892 | 1.02
8 | LK-2 | 0.918 | 0.812 | 0.819 | 0.722 | 0.744 | 0.252 | 0.297 |  |  | 0.191 | 0.321 | 0.24 | 0.463 | 0.335 | 0.254 | 0.983 | 1.18 | 1.6 | 1.24 | 1.09
9 | 201T | 0.741 | 0.726 | 0.788 | 0.728 | 0.716 | 0.372 | 0.321 | 0.323 | 0.276 | 0.343 | 0.356 | 0.321 | 0.403 | 0.318 | 0.364 | 1.36 |  | 1.17 | 1.04 | 1.12
10 | NCI-H596 | 0.851 | 0.745 | 0.747 | 0.817 | 0.675 | 0.484 | 0.447 | 0.506 | 0.515 | 0.49 | 0.493 | 0.518 | 0.56 | 0.509 | 0.466 | 0.949 | 1.17 | 0.809 | 0.799 | 0.701
11 | H3255 | 0.744 | 0.55 | 0.832 | 0.582 | 0.597 | 0.573 | 0.568 | 0.536 | 0.557 | 0.525 | 0.562 | 0.582 | 0.558 | 0.557 | 0.604 | 0.898 | 0.953 | 1.01 | 0.822 | 0.874
12 | NCI-H647 | 0.619 | 0.431 | 0.524 | 0.502 | 0.433 | 0.179 | 0.158 | 0.243 | 0.221 | 0.243 | 0.199 | 0.174 | 0.184 | 0.196 | 0.147 | 1.4 | 1.2 | 1.27 | 1.17 | 1.12
13 | NCI-H2023 | 0.601 | 0.617 | 0.509 | 0.447 | 0.416 | 0.254 | 0.241 | 0.235 | 0.503 | 0.171 | 0.265 | 0.198 | 0.292 | 0.225 | 0.178 | 1.03 | 0.882 | 0.777 | 0.844 | 0.818
14 | NCI-H23 | 0.437 | 0.423 | 0.479 | 0.334 | 0.375 | 0.666 | 0.691 | 0.741 | 0.641 | 0.581 | 0.674 | 0.633 | 0.919 | 0.653 | 0.421 | 1.13 | 0.999 | 1.08 | 0.894 | 0.959
15 | NCI-H520 | 0.853 | 0.676 | 0.843 | 0.633 | 0.685 | 0.655 | 0.62 | 0.651 | 0.687 | 0.574 | 0.762 | 0.523 | 0.777 | 0.716 | 0.734 | 0.914 | 0.798 | 0.932 | 0.721 | 0.912
16 | NCI-H460 | 0.114 | 0.24 | 0.125 | 0.121 | 0.126 | 0.0612 | 0.0659 | 0.065 | 0.0654 | 0.0753 | 0.0573 | 0.0837 | 0.0626 | 0.0636 | 0.0643 | 1.15 | 0.987 | 0.975 | 1.09 | 0.914

From the supplement of paper PMC10307832
